# Results from patent US6399541B1, “Substituted 2,4-diamino-1,3,5-triazines as herbicides” (Bayer Aktiengesellschaft, priority 1997, dated 2002).
# Tests used:
# Assay type in all cases: in vivo
# Abutilon = assay: Pre-emergence test/greenhouse; settings: after three weeks
# Experimental: (§1) Solvent: 5 parts by weight of acetone
# (§2) Emulsifier: 1 part by weight of alkylaryl polyglycol ether
# (§3) To produce a suitable preparation of active compound, 1 part by weight of active compound is mixed with the stated amount of solvent, the stated amount of emulsifier is added and the concentrate is diluted with water to the desired concentration.
# (§4) Seeds of the test plants are sown in normal soil. After about 24 hours, the soil is sprayed with the preparation of active compound in such a way that the particular amounts of active compound desired are employed per unit area. The concentration of the spray liquor is chosen such that the particular amounts of active compound desired are applied in 1000 l of water/ha.
# (§5) After three weeks, the degree of damage to the plants is assessed in % damage in comparison to the development of the untreated control.
# (§6) 0%=no effect (as untreated control) 100%=total destruction
# Alopecurus = assay: Pre-emergence test/greenhouse; settings: after three weeks
# Experimental: as §1, §2, §3, §4, §5, §6
# Amaranthus = assay: Pre-emergence test/greenhouse; settings: after three weeks
# Experimental: as §1, §2, §3, §4, §5, §6
# Avena fatua = assay: Pre-emergence test/greenhouse; settings: 1000 g of ai./ha, after three weeks
# Experimental: as §1, §2, §3, §4, §5, §6
# Galium = assay: Pre-emergence test/greenhouse; settings: 1000 g of ai./ha, after three weeks
# Experimental: as §1, §2, §3, §4, §5, §6
# Xanthium = assay: Pre-emergence test/greenhouse; settings: 1000 g of ai./ha, after three weeks
# Experimental: as §1, §2, §3, §4, §5, §6
# Cassia [1] = assay: Post-emergence test/greenhouse; settings: after three weeks
# Experimental: as §1, §2, §3
# as §4, with “Test plants which have a height” for “Seeds”, “5 to 15 cm” for “the test plants”, “are” for “are sown in normal soil. After about 24 hours, the soil is”, “applied” for “employed”
# as §5
# (§7) 0%=no effect (as untreated control)
# Ipomoea [2] = assay: Post-emergence test/greenhouse; settings: after three weeks
# Experimental: as §1, §2, §3
# as §4, with “Test plants which have a height” for “Seeds”, “5 to 15 cm” for “the test plants”, “are” for “are sown in normal soil. After about 24 hours, the soil is”, “applied” for “employed”
# as §5, §7
# Matricaria = assay: Post-emergence test/greenhouse; settings: 125 g of ai./ha, after three weeks
# Experimental: as §1, §2, §3
# as §4, with “Test plants which have a height” for “Seeds”, “5 to 15 cm” for “the test plants”, “are” for “are sown in normal soil. After about 24 hours, the soil is”, “applied” for “employed”
# as §5, §7
# Polygonum = assay: Post-emergence test/greenhouse; settings: 60 g of ai./ha, after three weeks
# Experimental: as §1, §2, §3
# as §4, with “Test plants which have a height” for “Seeds”, “5 to 15 cm” for “the test plants”, “are” for “are sown in normal soil. After about 24 hours, the soil is”, “applied” for “employed”
# as §5, §7
# Solanum = assay: Post-emergence test/greenhouse; settings: 60 g of ai./ha, after three weeks
# Experimental: as §1, §2, §3
# as §4, with “Test plants which have a height” for “Seeds”, “5 to 15 cm” for “the test plants”, “are” for “are sown in normal soil. After about 24 hours, the soil is”, “applied” for “employed”
# as §5, §7
# Veronica = assay: Post-emergence test/greenhouse; settings: after three weeks
# Experimental: as §1, §2, §3
# as §4, with “Test plants which have a height” for “Seeds”, “5 to 15 cm” for “the test plants”, “are” for “are sown in normal soil. After about 24 hours, the soil is”, “applied” for “employed”
# as §5, §7
# weeds [3] = assay: Pre-emergence test; settings: cf. Table A
# Experimental: as §1, §2, §3, §4, §5, §6
# weeds [4] = assay: Post-emergence test; settings: cf. Table B
# Experimental: as §1, §2, §3
# as §4, with “Test plants which have a height” for “Seeds”, “5 to 15 cm” for “the test plants”, “are” for “are sown in normal soil. After about 24 hours, the soil is”, “applied” for “employed”
# as §5, §7
# Cassia [5] = assay: Pre-emergence test/greenhouse; settings: 250 g of ai./ha, after three weeks
# Experimental: as §1, §2, §3, §4, §5, §6
# Ipomoea [6] = assay: Pre-emergence test/greenhouse; settings: 250 g of ai./ha, after three weeks
# Experimental: as §1, §2, §3, §4, §5, §6
# Lolium = assay: Pre-emergence test/greenhouse; settings: 250 g of ai./ha, after three weeks
# Experimental: as §1, §2, §3, §4, §5, §6
# Sorghum = assay: Pre-emergence test/greenhouse; settings: 250 g of ai./ha, after three weeks
# Experimental: as §1, §2, §3, §4, §5, §6
# Reapseed = assay: Pre-emergence test/greenhouse; settings: 250 g of ai./ha, after three weeks
# Experimental: as §1, §2, §3, §4, §5, §6
# Wheat = assay: Post-emergence test/greenhouse; settings: 60 g of ai./ha, after three weeks
# Experimental: as §1, §2, §3
# as §4, with “Test plants which have a height” for “Seeds”, “5 to 15 cm” for “the test plants”, “are” for “are sown in normal soil. After about 24 hours, the soil is”, “applied” for “employed”
# as §5, §7
compound,measurement,setting,value
"CCC(Nc1nc(N)nc(C(C)F)n1)c1ccccc1 (racemic) [Example 1, 2-amino-4-(1-fluoro-ethyl)-6-(1-phenyl-propyl-amino)-1,3,5-triazine]","degree of damage, Abutilon",Abutilon; 1000 g of ai./ha,70%
same,"degree of damage, Alopecurus",Alopecurus; 1000 g of ai./ha,100%
same,"degree of damage, Amaranthus",Amaranthus; 1000 g of ai./ha,100%
same,"degree of damage, Avena fatua",Avena fatua,70%
same,"degree of damage, Galium",Galium,100%
same,"degree of damage, Xanthium",Xanthium,100%
same,"degree of damage, Cassia",Cassia [1]; 125 g of ai./ha,90%
same,"degree of damage, Ipomoea",Ipomoea [2]; 60 g of ai./ha,100%
same,"degree of damage, Ipomoea",Ipomoea [2]; 125 g of ai./ha,100%
same,"degree of damage, Matricaria",Matricaria,80%
same,"degree of damage, Polygonum",Polygonum,100%
same,"degree of damage, Solanum",Solanum,95%
same,"degree of damage, Veronica",Veronica; 60 g of ai./ha,95%
same,"degree of damage, Veronica",Veronica; 125 g of ai./ha,100%
same,action against weeds compared with known compound (A),weeds [3],considerably strong action against weeds than the known compound (A)
same,activity against weeds compared with known compound (A),weeds [4],considerably stronger activity against weeds than the known compound (A)
CC(F)c1nc(N)nc(NC(C)c2ccccc2)n1 (racemic) [Example 16],"degree of damage, Abutilon",Abutilon; 250 g of ai./ha,80%
same,"degree of damage, Alopecurus",Alopecurus; 250 g of ai./ha,100%
same,"degree of damage, Amaranthus",Amaranthus; 250 g of ai./ha,100%
same,"degree of damage, Cassia",Cassia [5],100%
same,"degree of damage, Ipomoea",Ipomoea [6],100%
same,"degree of damage, Lolium",Lolium,100%
same,"degree of damage, Sorghum",Sorghum,95%
same,action against weeds compared with known compound (A),weeds [3],considerably strong action against weeds than the known compound (A)
CC(Cl)c1nc(N)nc(NC(C)c2ccccc2)n1 (racemic) [Example 18],"degree of damage, Amaranthus",Amaranthus; 250 g of ai./ha,100%
same,"degree of damage, Ipomoea",Ipomoea [6],95%
same,"degree of damage, Reapseed",Reapseed,0%
same,"degree of damage, Cassia",Cassia [1]; 60 g of ai./ha,70%
same,"degree of damage, Solanum",Solanum,90%
same,"degree of damage, Veronica",Veronica; 60 g of ai./ha,95%
same,"degree of damage, Wheat",Wheat,0%
same,action against weeds compared with known compound (A),weeds [3],considerably strong action against weeds than the known compound (A)
same,activity against weeds compared with known compound (A),weeds [4],considerably stronger activity against weeds than the known compound (A)
